In ChEMBL document CHEMBL3991601, “The target landscape of clinical kinase drugs” (Science, 2017):
Counter-ions that a name gives are not always drawn. Activity calls are given as the source filed them. Cut-off read from the data, not from the text of the source, for most assays here: actives have a measured Kd and inactives only a lower limit.

Assays:
[1] = molecular target: Tyrosine-protein kinase ABL1 (Homo sapiens, UniProt P00519)
[2] = molecular target: Atypical kinase COQ8A, mitochondrial (Homo sapiens, UniProt Q8NI60)
Atypical kinase COQ8A, mitochondrial, sequence (Q8NI60 whole entry): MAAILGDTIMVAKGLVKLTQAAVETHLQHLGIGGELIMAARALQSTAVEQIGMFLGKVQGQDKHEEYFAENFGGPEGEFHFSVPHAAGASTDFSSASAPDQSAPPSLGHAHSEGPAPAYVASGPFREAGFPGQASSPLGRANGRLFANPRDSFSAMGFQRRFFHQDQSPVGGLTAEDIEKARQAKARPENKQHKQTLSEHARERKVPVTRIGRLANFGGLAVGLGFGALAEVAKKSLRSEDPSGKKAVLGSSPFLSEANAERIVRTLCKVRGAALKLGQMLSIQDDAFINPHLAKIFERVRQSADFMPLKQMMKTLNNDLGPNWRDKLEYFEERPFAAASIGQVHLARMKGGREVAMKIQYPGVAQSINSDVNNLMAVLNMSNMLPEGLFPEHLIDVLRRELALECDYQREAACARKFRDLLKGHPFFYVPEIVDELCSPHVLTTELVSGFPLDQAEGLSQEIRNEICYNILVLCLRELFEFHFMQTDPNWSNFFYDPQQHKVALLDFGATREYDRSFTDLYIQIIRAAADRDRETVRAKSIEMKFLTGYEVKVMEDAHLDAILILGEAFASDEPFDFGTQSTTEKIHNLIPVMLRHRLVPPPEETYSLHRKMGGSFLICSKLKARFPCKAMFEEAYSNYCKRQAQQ

[3] = molecular target: T1, Adenine phosphoribosyltransferase (Homo sapiens, UniProt P07741)
T1 sequence (P07741 whole entry): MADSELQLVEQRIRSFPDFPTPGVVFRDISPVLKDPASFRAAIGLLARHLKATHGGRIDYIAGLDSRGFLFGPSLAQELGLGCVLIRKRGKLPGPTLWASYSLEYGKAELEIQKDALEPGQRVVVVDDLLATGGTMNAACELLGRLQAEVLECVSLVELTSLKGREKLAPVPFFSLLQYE

[4] = molecular target: Bone morphogenetic protein receptor type-1A (Homo sapiens, UniProt P36894)
[5] = molecular target: Tyrosine-protein kinase BTK (Homo sapiens, UniProt Q06187)
Tyrosine-protein kinase BTK, sequence (Q06187 whole entry): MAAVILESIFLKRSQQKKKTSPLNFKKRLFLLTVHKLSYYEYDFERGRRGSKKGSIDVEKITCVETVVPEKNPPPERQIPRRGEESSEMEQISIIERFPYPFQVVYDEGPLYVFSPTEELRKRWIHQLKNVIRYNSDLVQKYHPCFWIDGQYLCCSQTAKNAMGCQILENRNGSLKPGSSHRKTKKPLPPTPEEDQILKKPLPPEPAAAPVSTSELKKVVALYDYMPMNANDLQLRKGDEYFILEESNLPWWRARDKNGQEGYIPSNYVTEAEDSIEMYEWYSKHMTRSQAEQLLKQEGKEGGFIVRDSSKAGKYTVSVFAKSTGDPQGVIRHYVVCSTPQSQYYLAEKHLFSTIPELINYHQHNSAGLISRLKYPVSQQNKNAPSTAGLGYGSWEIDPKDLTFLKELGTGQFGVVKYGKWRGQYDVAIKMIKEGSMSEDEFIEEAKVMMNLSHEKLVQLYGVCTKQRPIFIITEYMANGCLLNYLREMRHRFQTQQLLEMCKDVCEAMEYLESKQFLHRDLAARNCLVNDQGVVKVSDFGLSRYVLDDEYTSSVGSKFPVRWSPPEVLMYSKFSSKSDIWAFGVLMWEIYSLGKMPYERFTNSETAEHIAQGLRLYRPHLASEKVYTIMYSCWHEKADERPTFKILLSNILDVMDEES

[6] = molecular target: Serine/threonine-protein kinase MRCK gamma (Homo sapiens, UniProt Q6DT37)
[7] = molecular target: Dual specificity tyrosine-phosphorylation-regulated kinase 1A (Homo sapiens, UniProt Q13627)
[8] = molecular target: Ephrin type-A receptor 2 (Homo sapiens, UniProt P29317)
[9] = molecular target: Ephrin type-A receptor 5 (Homo sapiens, UniProt P54756)
Ephrin type-A receptor 5, sequence (P54756 whole entry): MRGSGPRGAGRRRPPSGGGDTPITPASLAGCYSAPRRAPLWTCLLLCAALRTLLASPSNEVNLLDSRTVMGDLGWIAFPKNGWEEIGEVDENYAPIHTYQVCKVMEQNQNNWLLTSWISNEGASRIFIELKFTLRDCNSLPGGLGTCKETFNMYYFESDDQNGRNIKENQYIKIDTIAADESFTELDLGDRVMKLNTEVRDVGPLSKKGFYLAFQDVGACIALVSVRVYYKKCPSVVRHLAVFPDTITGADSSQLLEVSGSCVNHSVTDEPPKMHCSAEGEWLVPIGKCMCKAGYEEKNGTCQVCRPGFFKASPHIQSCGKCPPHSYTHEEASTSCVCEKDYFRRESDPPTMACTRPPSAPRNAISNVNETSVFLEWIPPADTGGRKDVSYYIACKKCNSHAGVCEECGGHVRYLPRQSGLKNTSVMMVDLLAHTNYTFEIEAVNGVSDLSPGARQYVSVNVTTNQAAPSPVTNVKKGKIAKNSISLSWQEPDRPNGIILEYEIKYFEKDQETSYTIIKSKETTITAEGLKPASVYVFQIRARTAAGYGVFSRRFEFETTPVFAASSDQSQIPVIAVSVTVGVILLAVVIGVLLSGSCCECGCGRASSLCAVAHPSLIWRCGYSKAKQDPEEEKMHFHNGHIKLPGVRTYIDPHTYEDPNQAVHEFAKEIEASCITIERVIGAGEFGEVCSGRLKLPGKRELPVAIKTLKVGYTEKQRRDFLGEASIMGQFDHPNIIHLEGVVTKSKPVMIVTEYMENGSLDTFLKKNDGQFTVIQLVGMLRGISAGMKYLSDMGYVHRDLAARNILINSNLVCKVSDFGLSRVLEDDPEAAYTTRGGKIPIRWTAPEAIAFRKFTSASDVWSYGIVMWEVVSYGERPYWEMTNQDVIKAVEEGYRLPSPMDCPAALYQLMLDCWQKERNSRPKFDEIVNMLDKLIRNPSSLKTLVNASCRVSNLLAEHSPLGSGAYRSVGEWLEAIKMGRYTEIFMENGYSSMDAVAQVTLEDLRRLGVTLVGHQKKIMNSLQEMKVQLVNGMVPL

[10] = molecular target: Tyrosine-protein kinase Fer (Homo sapiens, UniProt P16591)
Tyrosine-protein kinase Fer, sequence (P16591 whole entry): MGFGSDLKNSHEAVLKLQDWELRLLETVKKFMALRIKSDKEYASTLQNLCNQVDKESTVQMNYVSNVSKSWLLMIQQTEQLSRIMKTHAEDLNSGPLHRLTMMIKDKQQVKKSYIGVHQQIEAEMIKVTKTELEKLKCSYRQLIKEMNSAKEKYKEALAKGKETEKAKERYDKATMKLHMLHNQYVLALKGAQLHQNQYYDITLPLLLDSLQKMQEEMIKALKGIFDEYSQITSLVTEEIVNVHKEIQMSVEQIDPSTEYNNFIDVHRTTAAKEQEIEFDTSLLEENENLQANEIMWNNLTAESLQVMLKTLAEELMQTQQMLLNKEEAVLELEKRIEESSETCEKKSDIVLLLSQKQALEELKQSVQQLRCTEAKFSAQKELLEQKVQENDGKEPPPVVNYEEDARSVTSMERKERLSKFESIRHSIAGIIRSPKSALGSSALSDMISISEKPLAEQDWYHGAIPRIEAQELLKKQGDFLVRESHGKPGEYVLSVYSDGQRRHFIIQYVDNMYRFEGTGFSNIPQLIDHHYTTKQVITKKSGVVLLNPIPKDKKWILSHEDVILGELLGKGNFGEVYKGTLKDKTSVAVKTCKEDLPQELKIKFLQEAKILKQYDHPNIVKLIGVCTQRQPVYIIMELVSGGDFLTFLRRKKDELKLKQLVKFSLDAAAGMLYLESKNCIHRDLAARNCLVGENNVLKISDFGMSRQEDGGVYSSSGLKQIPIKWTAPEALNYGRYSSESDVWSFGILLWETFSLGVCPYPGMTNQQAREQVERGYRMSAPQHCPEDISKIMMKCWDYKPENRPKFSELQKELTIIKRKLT

[11] = molecular target: T2, Glycine--tRNA ligase (Homo sapiens, UniProt P41250)
T2 sequence (P41250 whole entry): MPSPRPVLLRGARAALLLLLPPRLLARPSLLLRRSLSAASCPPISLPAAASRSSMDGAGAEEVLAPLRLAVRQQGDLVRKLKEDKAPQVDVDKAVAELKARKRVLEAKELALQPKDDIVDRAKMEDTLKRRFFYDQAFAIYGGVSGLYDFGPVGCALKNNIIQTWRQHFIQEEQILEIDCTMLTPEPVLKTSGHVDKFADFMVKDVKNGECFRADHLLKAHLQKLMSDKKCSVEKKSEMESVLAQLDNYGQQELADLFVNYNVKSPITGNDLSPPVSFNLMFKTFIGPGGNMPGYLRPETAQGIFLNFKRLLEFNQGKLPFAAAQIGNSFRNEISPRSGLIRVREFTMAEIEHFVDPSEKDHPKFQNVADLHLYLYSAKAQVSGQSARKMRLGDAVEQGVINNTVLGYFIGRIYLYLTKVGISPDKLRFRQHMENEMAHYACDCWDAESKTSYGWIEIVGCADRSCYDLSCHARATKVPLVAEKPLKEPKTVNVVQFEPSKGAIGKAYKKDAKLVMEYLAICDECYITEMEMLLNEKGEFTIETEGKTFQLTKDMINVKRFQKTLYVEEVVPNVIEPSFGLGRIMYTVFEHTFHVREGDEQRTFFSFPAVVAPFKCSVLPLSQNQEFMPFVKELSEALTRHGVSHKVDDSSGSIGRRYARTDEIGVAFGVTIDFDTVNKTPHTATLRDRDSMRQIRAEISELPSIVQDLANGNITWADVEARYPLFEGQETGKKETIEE

[12] = molecular target: Dual specificity mitogen-activated protein kinase kinase 1 (Homo sapiens, UniProt Q02750)
Dual specificity mitogen-activated protein kinase kinase 1, sequence (Q02750 whole entry): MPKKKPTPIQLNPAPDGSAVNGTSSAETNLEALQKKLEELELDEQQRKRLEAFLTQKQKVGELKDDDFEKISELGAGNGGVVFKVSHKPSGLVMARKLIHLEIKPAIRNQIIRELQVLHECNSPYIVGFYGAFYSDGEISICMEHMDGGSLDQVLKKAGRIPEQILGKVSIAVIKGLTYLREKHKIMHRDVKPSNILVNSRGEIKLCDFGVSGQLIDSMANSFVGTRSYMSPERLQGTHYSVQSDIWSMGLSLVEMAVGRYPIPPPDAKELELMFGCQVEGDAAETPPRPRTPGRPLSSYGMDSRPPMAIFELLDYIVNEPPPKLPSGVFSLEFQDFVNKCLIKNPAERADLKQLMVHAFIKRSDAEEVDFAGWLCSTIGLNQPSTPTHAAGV

[13] = molecular target: Protein kinase C beta type (Homo sapiens, UniProt P05771)
Protein kinase C beta type, sequence (P05771 whole entry): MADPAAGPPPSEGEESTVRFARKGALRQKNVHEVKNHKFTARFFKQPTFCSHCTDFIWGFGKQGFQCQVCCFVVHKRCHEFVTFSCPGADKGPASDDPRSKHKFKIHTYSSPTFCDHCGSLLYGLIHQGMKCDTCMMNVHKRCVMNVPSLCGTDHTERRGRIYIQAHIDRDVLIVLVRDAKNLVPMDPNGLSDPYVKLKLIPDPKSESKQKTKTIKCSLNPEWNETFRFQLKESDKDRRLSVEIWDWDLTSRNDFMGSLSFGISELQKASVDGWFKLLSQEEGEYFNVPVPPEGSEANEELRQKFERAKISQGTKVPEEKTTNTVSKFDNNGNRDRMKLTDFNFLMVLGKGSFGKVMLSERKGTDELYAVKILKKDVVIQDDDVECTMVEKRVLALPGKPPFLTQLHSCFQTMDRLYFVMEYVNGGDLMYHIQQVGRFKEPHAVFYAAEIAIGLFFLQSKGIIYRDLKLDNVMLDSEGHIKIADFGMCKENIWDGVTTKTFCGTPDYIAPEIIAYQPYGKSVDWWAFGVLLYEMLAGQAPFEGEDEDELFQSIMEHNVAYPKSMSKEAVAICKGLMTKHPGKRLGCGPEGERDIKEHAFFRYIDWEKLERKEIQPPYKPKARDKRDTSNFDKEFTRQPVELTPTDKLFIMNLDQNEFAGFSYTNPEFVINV

[14] = molecular target: T3, Rab-like protein 3 (Homo sapiens, UniProt Q5HYI8)
T3 sequence (Q5HYI8 whole entry): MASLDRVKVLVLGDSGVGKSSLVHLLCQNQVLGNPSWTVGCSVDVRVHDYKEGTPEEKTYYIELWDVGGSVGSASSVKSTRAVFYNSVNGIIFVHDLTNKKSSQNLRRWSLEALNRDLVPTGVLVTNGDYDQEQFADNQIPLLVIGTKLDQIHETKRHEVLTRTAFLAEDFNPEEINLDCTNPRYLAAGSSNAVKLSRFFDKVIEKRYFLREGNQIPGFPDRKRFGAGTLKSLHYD

[15] = molecular target: Serine/threonine-protein kinase SIK3 (Homo sapiens, UniProt Q9Y2K2)
[16] = molecular target: T4, Serine/threonine-protein kinase TBK1 (Homo sapiens, UniProt Q9UHD2)
T4 sequence (Q9UHD2 whole entry): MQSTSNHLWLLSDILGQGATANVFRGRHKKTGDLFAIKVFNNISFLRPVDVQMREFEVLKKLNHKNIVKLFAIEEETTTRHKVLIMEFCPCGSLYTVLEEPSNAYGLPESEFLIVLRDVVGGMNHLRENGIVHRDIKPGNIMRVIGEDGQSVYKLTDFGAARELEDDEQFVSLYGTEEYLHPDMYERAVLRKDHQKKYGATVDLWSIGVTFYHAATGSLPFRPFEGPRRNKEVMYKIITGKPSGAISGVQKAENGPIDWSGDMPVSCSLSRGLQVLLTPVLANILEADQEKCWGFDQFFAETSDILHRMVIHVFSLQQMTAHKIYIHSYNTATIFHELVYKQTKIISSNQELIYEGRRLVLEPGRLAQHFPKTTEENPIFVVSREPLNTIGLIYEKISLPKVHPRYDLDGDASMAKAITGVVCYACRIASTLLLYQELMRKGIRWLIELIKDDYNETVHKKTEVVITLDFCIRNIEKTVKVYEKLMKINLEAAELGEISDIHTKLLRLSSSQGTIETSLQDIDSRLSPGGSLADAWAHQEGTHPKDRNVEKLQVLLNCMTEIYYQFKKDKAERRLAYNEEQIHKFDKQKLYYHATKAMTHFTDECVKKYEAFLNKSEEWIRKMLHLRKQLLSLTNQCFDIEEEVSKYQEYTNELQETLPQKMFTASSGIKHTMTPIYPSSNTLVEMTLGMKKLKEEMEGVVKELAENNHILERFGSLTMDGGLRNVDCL

[17] = molecular target: Dual specificity protein kinase CLK2 (Homo sapiens, UniProt P49760)
Dual specificity protein kinase CLK2, sequence (P49760 whole entry): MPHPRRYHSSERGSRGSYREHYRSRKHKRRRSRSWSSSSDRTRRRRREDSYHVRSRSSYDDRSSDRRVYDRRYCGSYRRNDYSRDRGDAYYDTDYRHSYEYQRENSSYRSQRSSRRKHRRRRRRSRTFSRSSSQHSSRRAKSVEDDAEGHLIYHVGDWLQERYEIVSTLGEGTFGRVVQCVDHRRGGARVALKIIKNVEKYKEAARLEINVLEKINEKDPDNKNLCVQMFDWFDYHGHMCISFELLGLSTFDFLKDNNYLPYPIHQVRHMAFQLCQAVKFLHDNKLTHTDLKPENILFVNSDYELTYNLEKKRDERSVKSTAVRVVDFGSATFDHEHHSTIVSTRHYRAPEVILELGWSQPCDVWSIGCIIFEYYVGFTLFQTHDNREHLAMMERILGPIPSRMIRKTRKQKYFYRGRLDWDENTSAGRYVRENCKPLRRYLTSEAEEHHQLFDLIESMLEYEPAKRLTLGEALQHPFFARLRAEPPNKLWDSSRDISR
Note: in the data inactive means no Kd found up to 30 µM.

| Kd [1] | Kd [2] | Kd [3] | Kd [4] | Kd [5] | Kd [6] | Kd [7] | Kd [8] | Kd [9] | Kd [10] | Kd [11] | Kd [12] | Kd [13] | Kd [14] | Kd [15] | Kd [16] | Kd [17] | SMILES |
| --- | --- | --- | --- | --- | --- | --- | --- | --- | --- | --- | --- | --- | --- | --- | --- | --- | --- |
| > 30 µM (inactive) | > 30 µM (inactive) |  | > 30 µM (inactive) | > 30 µM (inactive) | > 30 µM (inactive) | > 30 µM (inactive) | > 30 µM (inactive) | > 30 µM (inactive) | > 30 µM (inactive) | > 30 µM (inactive) | > 30 µM (inactive) | > 30 µM (inactive) | > 30 µM (inactive) | 13.6 µM (active) |  | > 30 µM (inactive) | CCS(=O)(=O)N1CCN(c2ccc(Nc3ncc(C(N)=O)c(NC4CC4)n3)cc2)CC1 [Cerdulatinib Hydrochloride] |
|  | > 30 µM (inactive) |  | > 30 µM (inactive) |  |  | > 30 µM (inactive) | > 30 µM (inactive) | > 30 µM (inactive) | > 30 µM (inactive) | > 30 µM (inactive) | > 30 µM (inactive) | > 30 µM (inactive) | > 30 µM (inactive) |  | > 30 µM (inactive) | > 30 µM (inactive) | CCn1cc(-c2ccnc3[nH]c(-c4cccc(CN(C)C)c4)cc23)c(-c2ccc(NC(=O)N(C)C)cc2)n1 [GSK-1070916] |
|  | 3.01 µM (active) |  | > 30 µM (inactive) | > 30 µM (inactive) | > 30 µM (inactive) | 0.105 µM (active) | 0.661 µM (active) | 0.147 µM (active) | > 30 µM (inactive) | > 30 µM (inactive) | > 30 µM (inactive) | > 30 µM (inactive) | > 30 µM (inactive) | 0.266 µM (active) | 2.09 µM (active) | > 30 µM (inactive) | CNC(=O)c1nn(C)c2c1C(C)(C)Cc1cnc(Nc3ccc(N4CCN(C)CC4)cc3)nc1-2 [MILCICLIB] |
| > 30 µM (inactive) | > 30 µM (inactive) | > 30 µM (inactive) | > 30 µM (inactive) | > 30 µM (inactive) | > 30 µM (inactive) | > 30 µM (inactive) | > 30 µM (inactive) | > 30 µM (inactive) | > 30 µM (inactive) | > 30 µM (inactive) | > 30 µM (inactive) | > 30 µM (inactive) | > 30 µM (inactive) | > 30 µM (inactive) | > 30 µM (inactive) |  | CN(C[C@@H]1COCCO1)S(=O)(=O)Nc1ccc2ccc3ncc(-c4cnn(C)c4)cc3c(=O)c2c1 [MK-2461] |
| 0.31 µM (active) | > 30 µM (inactive) | > 30 µM (inactive) | > 30 µM (inactive) | 0.328 µM (active) | > 30 µM (inactive) | > 30 µM (inactive) | 0.178 µM (active) | 0.508 µM (active) | 0.574 µM (active) | > 30 µM (inactive) | > 30 µM (inactive) | > 30 µM (inactive) | > 30 µM (inactive) | > 30 µM (inactive) | 2.76 µM (active) |  | CCS(=O)(=O)c1cccc(-c2cc(C(=O)NC3CCN(C)CC3)c(C)c3[nH]c4ncc(C)cc4c23)c1 [TAK-901] |
| 0.921 µM (active) | > 30 µM (inactive) | > 30 µM (inactive) | > 30 µM (inactive) | 1.62 µM (active) | > 30 µM (inactive) | > 30 µM (inactive) | 0.501 µM (active) | > 30 µM (inactive) | > 30 µM (inactive) | > 30 µM (inactive) | > 30 µM (inactive) | > 30 µM (inactive) | > 30 µM (inactive) | > 30 µM (inactive) | > 30 µM (inactive) |  | COc1cc2c(Nc3ccc(Cl)c(Cl)c3F)ncnc2cc1OC[C@@H]1C[C@@H]2CN(C)C[C@@H]2C1 [TESEVATINIB] |
| > 30 µM (inactive) | > 30 µM (inactive) |  | > 30 µM (inactive) | > 30 µM (inactive) | > 30 µM (inactive) | 0.238 µM | > 30 µM (inactive) | > 30 µM (inactive) | > 30 µM (inactive) | > 30 µM (inactive) | > 30 µM (inactive) |  | > 30 µM (inactive) | > 30 µM (inactive) | > 30 µM (inactive) | > 30 µM (inactive) | Cn1ncc(Cl)c1-c1cc(C(=O)N[C@H](CN)Cc2ccc(F)c(F)c2)oc1Cl [UPROSERTIB] |
| 0.075 µM (active) | > 30 µM (inactive) |  |  | 15.8 µM |  | > 30 µM (inactive) | 0.032 µM (active) | 0.081 µM (active) | 0.105 µM (active) | > 30 µM (inactive) | 7.03 µM | > 30 µM (inactive) | > 30 µM (inactive) | > 30 µM (inactive) | 1.12 µM (active) | > 30 µM (inactive) | CC(C)c1cc(CNc2nc(Nc3cc(C4CC4)[nH]n3)cc(N3CCN(C)CC3)n2)on1 [XL-228] |
| 32.2 µM | > 30 µM (inactive) | > 30 µM (inactive) | > 30 µM (inactive) | > 30 µM (inactive) | > 30 µM (inactive) | 5.62 µM | > 30 µM (inactive) | > 30 µM (inactive) | 1.69 µM | > 30 µM (inactive) | > 30 µM (inactive) | 4.32 µM (active) | > 30 µM (inactive) | 1.3 µM | > 30 µM (inactive) |  | CN1C/C=C/CCOc2cccc(c2)-c2ccnc(n2)Nc2cccc(c2)C1 [ZOTIRACICLIB] |

| SMILES | Kd [1] | Kd [2] | Kd [3] | Kd [4] | Kd [5] | Kd [6] | Kd [7] | Kd [8] | Kd [9] | Kd [10] | Kd [11] | Kd [12] | Kd [13] | Kd [14] | Kd [15] | Kd [16] | Kd [17] |
| --- | --- | --- | --- | --- | --- | --- | --- | --- | --- | --- | --- | --- | --- | --- | --- | --- | --- |
| COc1cc([C@@H]2c3cc4c(cc3[C@H](O)[C@H]3COC(=O)[C@@H]23)OCO4)cc(OC)c1OC [AXL-1717] | > 30 µM (inactive) | > 30 µM (inactive) | > 30 µM (inactive) | > 30 µM (inactive) | > 30 µM (inactive) | > 30 µM (inactive) | > 30 µM (inactive) | > 30 µM (inactive) | > 30 µM (inactive) | > 30 µM (inactive) | > 30 µM (inactive) | > 30 µM (inactive) | > 30 µM (inactive) | > 30 µM (inactive) | > 30 µM (inactive) | > 30 µM (inactive) |  |
| CN1CCN(CCOc2cc(OC3CCOCC3)c3c(Nc4c(Cl)ccc5c4OCO5)ncnc3c2)CC1 [SARACATINIB] |  | 0.275 µM (active) |  | 0.06 µM (active) | 10.2 µM (active) | > 30 µM (inactive) | > 30 µM (inactive) | 0.729 µM (active) | 2.38 µM (active) | > 30 µM (inactive) | > 30 µM (inactive) | > 30 µM (inactive) | > 30 µM (inactive) | > 30 µM (inactive) | 4.85 µM (active) | > 30 µM (inactive) | > 30 µM (inactive) |
